One series has as its target PI3Kα (Homo sapiens, UniProt P42336). Put plainly: PI3Kα Kinase-Glo Luminescent Kinase Assay. The format is biochemical. Background: Kinase-Glo measures the ATP left after a reaction by luminescence.
Series [1] deals with PC-3 (human prostatic cancer) cell line. The series is described as follows: MTT cell proliferation (cytotoxicity) assay, PC-3. The class given is cell-based. Conditions: Homo sapiens, 72 h, average of two separate determinations. How it is done: (§1) Taking GDC-0941 as reference compound, the target compounds […], 12a–j, 13a–g and 14a–g ere evaluated for the cytotoxicity against the three cancer cell lines A549, PC-3 and MCF-7 usg 3-(4,5-dimethylthiazolyl-2)-2,5-diphenyltetrazolium bromide (MTT) cell proliferation assays. In addition, one selected compounds 12h was fher evaluated for PI3Kα kinase inhibitory activity. The results, expressed as IC50 values or inhibitory rate, are sumrized in Table 1, Table 2 and Table 3.
(§2) The in vitro cytotoxic activities of all the compounds 11a–11j, 12a–12j, 13a–13g and 14a–14g was evaluated with A549, PC-3 and MCF-7 cell lines by the standard MTT assay, with GDC-0941 as positive control. The cancer cell lines were cultured in minimum essential medium (MEM) supplement with 10% fetal bovine serum (FBS). Approximately 4 × 10^3 cells, suspended in MEM medium, were plated onto each well of a 96-well plate and incubated in 5% CO2 at 37 °C for 24 h. The test compounds at indicated final concentrations were added to the culture medium and the cell cultures were continued for 72 h. Fresh MTT was added to each well at a terminal concentration of […] and incubated with cells at 37 °C for 4 h. The formazan crystals were dissolved in 100 µL DMSO each well, and the absorbency at 492 nm (for absorbance of MTT formazan) and 630 nm (for the reference wavelength) was measured with an ELISA reader. All of the compounds were tested three times in each of the cell lines. The results expressed as inhibition rates or IC50 (half-maximal inhibitory concentration) were the averages of two determinations and calculated by using the Bacus Laboratories Inc. Slide Scanner (Bliss) software (the Bacus Laboratories Inc. Slide Scanner (BLISS) system, Lombard, IL, USA).

The test system of series [2] is A549 (human lung cancer) cell line. Put plainly: MTT cell proliferation (cytotoxicity) assay, A549. The class given is cell-based. Particulars: Homo sapiens, A549, 72 h, average of two separate determinations. How it is done: as §1, §2
Series [3] relates to MCF-7 (human breast cancer) cell line. The series is described as follows: MTT cell proliferation (cytotoxicity) assay, MCF-7. The class given is cell-based. Particulars: Homo sapiens, MCF7, 72 h, average of two separate determinations. How it is done: as §1, §2

Sequence of PI3Kα (P42336 whole entry): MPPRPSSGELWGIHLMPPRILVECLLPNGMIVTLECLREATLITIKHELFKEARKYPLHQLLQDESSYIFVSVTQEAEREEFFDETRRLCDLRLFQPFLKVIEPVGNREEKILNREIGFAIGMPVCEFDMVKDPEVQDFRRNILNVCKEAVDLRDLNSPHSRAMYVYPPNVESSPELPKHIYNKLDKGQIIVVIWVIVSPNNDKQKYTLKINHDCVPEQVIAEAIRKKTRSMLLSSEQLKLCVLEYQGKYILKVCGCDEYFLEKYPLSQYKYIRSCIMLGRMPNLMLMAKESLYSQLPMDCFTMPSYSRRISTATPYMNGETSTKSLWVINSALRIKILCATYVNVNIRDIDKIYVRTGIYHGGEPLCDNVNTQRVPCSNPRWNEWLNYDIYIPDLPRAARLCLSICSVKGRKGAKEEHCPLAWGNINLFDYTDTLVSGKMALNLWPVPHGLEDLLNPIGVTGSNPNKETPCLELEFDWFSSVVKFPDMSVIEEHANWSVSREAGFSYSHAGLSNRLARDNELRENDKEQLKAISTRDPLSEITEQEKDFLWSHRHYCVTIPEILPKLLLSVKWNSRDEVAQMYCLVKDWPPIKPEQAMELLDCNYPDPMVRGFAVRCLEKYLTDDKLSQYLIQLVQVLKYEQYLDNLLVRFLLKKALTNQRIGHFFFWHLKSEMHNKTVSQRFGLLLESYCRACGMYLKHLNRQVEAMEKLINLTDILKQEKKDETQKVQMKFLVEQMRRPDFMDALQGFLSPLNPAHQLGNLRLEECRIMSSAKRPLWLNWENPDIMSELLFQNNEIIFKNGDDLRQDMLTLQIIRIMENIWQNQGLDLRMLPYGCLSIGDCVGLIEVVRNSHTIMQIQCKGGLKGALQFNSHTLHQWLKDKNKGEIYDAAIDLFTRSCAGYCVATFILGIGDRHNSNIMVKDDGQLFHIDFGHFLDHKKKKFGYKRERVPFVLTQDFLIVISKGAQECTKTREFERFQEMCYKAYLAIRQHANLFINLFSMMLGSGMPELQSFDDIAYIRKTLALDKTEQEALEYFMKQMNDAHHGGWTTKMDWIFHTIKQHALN
Sequence of PI3Kα (P27986 whole entry partner): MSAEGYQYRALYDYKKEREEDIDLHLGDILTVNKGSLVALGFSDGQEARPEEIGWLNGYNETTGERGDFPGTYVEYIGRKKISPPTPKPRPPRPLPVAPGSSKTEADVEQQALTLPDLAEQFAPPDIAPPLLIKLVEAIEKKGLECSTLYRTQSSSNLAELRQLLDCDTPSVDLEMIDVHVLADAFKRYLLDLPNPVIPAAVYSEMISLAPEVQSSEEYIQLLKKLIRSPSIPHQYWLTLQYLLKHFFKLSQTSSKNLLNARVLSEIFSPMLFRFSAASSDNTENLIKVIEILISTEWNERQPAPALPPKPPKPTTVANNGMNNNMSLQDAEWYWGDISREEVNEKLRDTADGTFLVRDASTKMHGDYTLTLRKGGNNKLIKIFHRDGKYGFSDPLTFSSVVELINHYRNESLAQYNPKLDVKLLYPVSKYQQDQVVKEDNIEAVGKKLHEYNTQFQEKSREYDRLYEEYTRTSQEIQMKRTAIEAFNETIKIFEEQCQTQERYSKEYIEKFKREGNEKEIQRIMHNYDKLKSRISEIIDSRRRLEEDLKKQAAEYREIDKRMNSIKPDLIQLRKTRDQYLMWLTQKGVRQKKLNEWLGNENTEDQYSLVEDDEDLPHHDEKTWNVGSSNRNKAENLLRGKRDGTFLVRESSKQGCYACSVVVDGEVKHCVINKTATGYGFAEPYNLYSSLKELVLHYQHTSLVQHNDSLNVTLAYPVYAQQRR

With `CCc1ccc(-c2ccnc(C(=O)Nc3ccc(-c4nc5c(c(N6CCOCC6)n4)CS(=O)(=O)CC5)cc3)c2)cc1` [Compound 12h, N-(4-(4-Morpholino-7,8-dihydro-6,6-dioxide-5H-thiopyrano[4,3-d]pyrimidin-2-yl)phenyl)-4-(4-ethylphenyl) picolinamide], the melting point lay in the range of 276.8 to 279.1 °C. This molecule also gave an IC50 at PI3Kα (Kinase-Glo, 1 µM ATP, 60 min, average of two separate determinations) of 7.39 ± 0.194 µM. Further, the “inhibitory rate against PI3Ka kinase” value against PI3Kα (at 10 µM, in words) is reported as “moderate”. In series [1] (Table 1), this molecule yielded a half-maximal inhibitory concentration (IC50) of 11.34 ± 0.11 µM. Besides, in series [2] (Table 1), the IC50 is 8.37 ± 0.1 µM. The molecule further had an IC50 in series [3] (Table 1) of 9.26 ± 0.82 µM.
`COc1ccc(-c2cc(C(=O)Nc3ccc(-c4nc5c(c(N6CCOCC6)n4)CSCC5)cc3)ncn2)cc1` [Compound 13b] yielded a melting point of 210 to 212.7 °C. Also, the IC50 in series [1] (Table 2) was over 100 µM. The 50% inhibitory concentration (IC50) in series [2] (Table 2) is over 100 µM. In series [3] (Table 2), the IC50 was over 100 µM.
For the molecule `O=C(Nc1ccc(-c2nc3c(c(N4CCOCC4)n2)CSCC3)cc1)c1cc(-c2ccc(C(F)(F)F)cc2)ncn1` [Compound 13c], the melting point lay within 244.2 to 245.8 °C. The molecule also had a concentration for half-maximal inhibition (IC50) in series [1] (Table 2) of over 100 µM. This molecule also returned an IC50 in series [2] (Table 2) of over 100 µM. The molecule further registered an IC50 in series [3] (Table 2) of over 100 µM.
Turning to `O=C(Nc1ccc(-c2nc3c(c(N4CCOCC4)n2)CSCC3)cc1)c1cc(-c2ccc(F)cc2)ncn1` [Compound 13d], the melting point lay in the range of 237 to 239.3 °C. In addition, the IC50 in series [1] (Table 2) was over 100 µM. The half-inhibitory concentration (IC50) in series [2] (Table 2) is over 100 µM. This molecule had a 50% inhibitory concentration (IC50) in series [3] (Table 2) of over 100 µM.
In turn, `O=C(Nc1ccc(-c2nc3c(c(N4CCOCC4)n2)CSCC3)cc1)c1cc(-c2ccc(Br)cc2)ncn1` [Compound 13e] had a melting point of 251.8 to 255 °C. In series [1] (Table 2), this molecule yielded an IC50 of over 100 µM. The molecule also came in with an IC50 in series [2] (Table 2) of over 100 µM. This molecule also had a concentration for half-maximal inhibition (IC50) in series [3] (Table 2) of over 100 µM.
Molecule `O=C(Nc1ccc(-c2nc3c(c(N4CCOCC4)n2)CSCC3)cc1)c1cc(-c2ccc(Cl)cc2)ncn1` [Compound 13f] had a melting point of 281.8 to 285 °C. Also, the IC50 in series [1] (Table 2) was over 100 µM. This molecule registered a 50% inhibitory concentration (IC50) in series [2] (Table 2) of over 100 µM. In addition, the IC50 in series [3] (Table 2) is over 100 µM.
Regarding `COc1ccc(-c2cc(C(=O)Nc3ccc(-c4nc5c(c(N6CCOCC6)n4)CS(=O)(=O)CC5)cc3)ncn2)cc1` [Compound 14b], the melting point fell in the range of 277 to 279.5 °C. The molecule also registered an IC50 in series [1] (Table 2) of over 100 µM. The molecule also came in with an IC50 in series [2] (Table 2) of over 100 µM. The molecule further registered an IC50 in series [3] (Table 2) of 89.6 ± 0.91 µM.
Molecule `O=C(Nc1ccc(-c2nc3c(c(N4CCOCC4)n2)CS(=O)(=O)CC3)cc1)c1cc(-c2ccc(C(F)(F)F)cc2)ncn1` [Compound 14c] showed a melting point of 287.1 to 289.2 °C. The molecule further displayed an IC50 in series [1] (Table 2) of over 100 µM. This molecule also showed a half-inhibitory concentration (IC50) in series [2] (Table 2) of over 100 µM. Further, the IC50 in series [3] (Table 2) is over 100 µM.
Molecule `O=C(Nc1ccc(-c2nc3c(c(N4CCOCC4)n2)CS(=O)(=O)CC3)cc1)c1cc(-c2ccc(F)cc2)ncn1` [Compound 14d] showed a melting point of over 300 °C. For the same molecule, the IC50 in series [1] (Table 2) was over 100 µM. In series [2] (Table 2), this molecule showed an IC50 of over 100 µM. Besides, the IC50 in series [3] (Table 2) was over 100 µM.
`O=C(Nc1ccc(-c2nc3c(c(N4CCOCC4)n2)CS(=O)(=O)CC3)cc1)c1cc(-c2ccc(Br)cc2)ncn1` [Compound 14e]: the melting point was over 300 °C. Also, in series [1] (Table 2), the IC50 is over 100 µM. In series [2] (Table 2), the IC50 was over 100 µM. Moreover, in series [3] (Table 2), the IC50 is 27.4 ± 1.27 µM.
In the case of `O=C(Nc1ccc(-c2nc3c(c(N4CCOCC4)n2)CS(=O)(=O)CC3)cc1)c1cc(-c2ccc(Cl)cc2)ncn1` [Compound 14f], the melting point was over 300 °C. The same molecule came in with an IC50 in series [1] (Table 2) of over 100 µM. In addition, the IC50 in series [2] (Table 2) is over 100 µM. In addition, in series [3] (Table 2), the IC50 is over 100 µM.
Molecule `O=C(Nc1ccc(-c2nc3c(c(N4CCOCC4)n2)CS(=O)(=O)CC3)cc1)c1cc(-c2ccccc2)ncn1` [Compound 14g] came in with a melting point of 294.2 to 296.6 °C. In addition, in series [1] (Table 2), the half-inhibitory concentration (IC50) was over 100 µM. This molecule also displayed an IC50 in series [2] (Table 2) of over 100 µM. In addition, in series [3] (Table 2), the IC50 was over 100 µM.

The IC50 is the point on the concentration scale where inhibition reaches its midpoint. The low end stands for inhibition by little substance, the high end for a need for much substance. As usually defined, the melting point is the temperature, or range, at which the solid turns liquid.
